In US11286242B2 (priority 2018, dated 2022):

Key:
Pyricularia oryzae = test: microbe, parasite or virus in culture; type: cell-based; conditions: 168 h, read-out: control compared to the untreated check
Botrytis cinerea = Botrytis cinerea (gray mold) radial mycelial growth on Potato Dextrose Agar; type: cell-based; conditions: 168 h, 22° C., 90% relative humidity, seven days, read-out: control compared to the untreated check
Method: Example 3: Botrytis cinerea (Gray Mold)
(§1) Compounds were dissolved in 0.3% DMSO & then added to Potato Dextrose Agar medium just prior to dispensing it into petri dishes. 5 mL medium with compound in the desired concentration was dispensed into 60 mm sterile petri-plates. After solidification, each plate was seeded with 5 mm size mycelial disc taken form periphery of actively growing virulent culture plate. Plates were incubated in growth chambers at 22° C. temperature and 90% relative humidity for seven days and radial growth was measured.

Alternaria solani = Alternaria solani (early blight of tomato/potato) radial mycelial growth on Potato Dextrose Agar; type: cell-based; conditions: 168 h, Potato Dextrose Agar, 25° C., 60% relative humidity, seven days, read-out: control compared to the untreated check
Method: Example 4: Alternaria solani (Early Blight of Tomato/Potato)
as §1, with “solidification” for “solidification,”, “25°” for “22°”, “60%” for “90%”

Phakopsora pachyrhizi = Phakopsora pachyrhizi test in soybean, preventive spray; type: in vivo; conditions: preventive spray on soybean plants, inoculated one day after treatment, greenhouse 25° C., 90% relative humidity, read-out: control (efficacy, disease severity rating) compared to the untreated check
Method: Example 8: Phakopsora pachyrhizi Test in Soybean
Compounds were dissolved in 2% DMSO/Acetone & then mixed with water to the calibrated spray volume of 50 mL and poured into the spray bottles for further applications.
To test the preventive activity of compounds, healthy young soybean plants raised in the greenhouse were sprayed with active compound preparation at the stated application rates inside the spray cabinets using hallowcone nozzles. One day after treatment, the plants were inoculated with spore suspension containing 2.1×10^6 Phakopsora pachyrhizi inoculum. The inoculated plants were then kept in greenhouse chamber at 25° C. temperature & 90% relative humidity for disease expression.
A visual assessment of compound's performance was carried out by rating the disease severity (0-100% scale) on treated plants on 3, 7, 10 & 15 days after application. Efficacy (% control) of the compounds was calculated by comparing the disease rating in the treatment with the one of the untreated control. The sprayed plants were also assessed for compound's plant compatibility by recording symptoms like necrosis, chlorosis & stunting.

Row | SMILES | inhibition of growth at 300 ppm (Pyricularia oryzae) [%] | inhibition of growth at 300 ppm (Botrytis cinerea) [%] | inhibition of growth at 300 ppm (Alternaria solani) [%] | pest or weed control at 500 ppm (Phakopsora pachyrhizi) [%]
1 | CS(=O)(=NCc1cccc(-c2noc(C(F)(F)F)n2)c1)c1ccccc1 (stereo not drawn) [Compound 138, methyl(phenyl)((3-(5-(trifluoromethyl)-1,2,4-oxadiazol-3-yl)benzyl)imino)-λ^6-sulfanone] | > 70 | > 70 |  | 
2 | CS(=O)(Cc1ccccc1F)=Nc1ccc(-c2noc(C(F)(F)F)n2)cc1 (stereo not drawn) [Compound 94, (2-fluorobenzyl)(methyl)((4-(5-(trifluoromethyl)-1,2,4-oxadiazol-3-yl)phenyl)imino)-λ^6-sulfanone] |  |  | > 70 | 
3 | CS(=O)(=NC(=O)c1ccc(-c2noc(C(F)(F)F)n2)cc1)c1nccs1 (stereo not drawn) [Compound 48, N-(methyl(oxo)(thiazol-2-yl)-λ^6-sulfaneylidene)-4-(5-(trifluoromethyl)-1,2,4-oxadiazol-3-yl)benzamide] |  | > 70 | > 70 | > 90
4 | CS(=O)(=NC(=O)c1ccc(-c2noc(C(F)(F)F)n2)cc1)c1ccc(F)cc1F (stereo not drawn) [Compound 47, N-((2,4-difluorophenyl)(methyl)(oxo)-λ^6-sulfaneylidene)-4-(5-(trifluoromethyl)-1,2,4-oxadiazol-3-yl)benzamide] |  |  | > 70 | > 90
5 | COc1ccc(S(=O)(=O)NC(=O)c2ccc(-c3noc(C(F)(F)F)n3)cc2)cc1 [Compound 157, N-((4-methoxyphenyl)sulfonyl)-4-(5-(trifiuoromethyl)-1,2,4-oxadiazol-3-yl)benzamide] |  | > 70 | > 70 | 
6 | Cc1csc(S(C)(=O)=Nc2ccc(-c3noc(C(F)(F)F)n3)cc2)n1 (stereo not drawn) [Compound 117, methyl(4-methylthiazol-2-yl)((4-(5-(trifluoromethyl)-1,2,4-oxadiazol-3-yl)phenyl)imino)-λ^6-sulfanone] | > 70 |  | > 70 | 
7 | Cc1ccc(S(=O)(=O)NC(=O)c2ccc(-c3noc(C(F)(F)F)n3)cc2)cc1 [Compound 153, N-tosyl-4-(5-(trifluoromethyl)-1,2,4-oxadiazol-3-yl)benzamide] |  | > 70 |  | 
8 | CS(=O)(=NC(=O)c1cccc(-c2noc(C(F)(F)F)n2)c1)c1nccs1 (stereo not drawn) [Compound 73, N-(methyl(oxo)(thiazol-2-yl)-λ^6-sulfaneylidene)-3-(5-(trifluoromethyl)-1,2,4-oxadiazol-3-yl)benzamide] |  |  | > 70 | 
9 | O=C(NS(=O)(=O)c1ccc(Br)cc1)c1ccc(-c2noc(C(F)(F)F)n2)cc1 [Compound 162, N-((4-bromophenyl)sulfonyl)-4-(5-(trifluoromethyl)-1,2,4-oxadiazol-3-yl)benzamide] |  |  | > 70 | 
10 | CS(=O)(Cc1ccc(C#N)cc1)=NC(=O)c1cccc(-c2noc(C(F)(F)F)n2)c1 (stereo not drawn) [Compound 75, N-((4-cyanobenzyl)(methyl)(oxo)-λ^6-sulfaneylidene)-3-(5-(trifluoromethyl)-1,2,4-oxadiazol-3-yl)benzamide] |  |  | > 70 | > 90
11 | O=C(NS(=O)(=O)c1c(Cl)cccc1Cl)c1ccc(-c2noc(C(F)(F)F)n2)cc1 [Compound 163, N-((2,6-dichlorophenyl)sulfonyl)-4-(5-(trifiuoromethyl)-1,2,4-oxadiazol-3-yl)benzamide] |  |  | > 70 | 
12 | COc1ccc(S(C)(=O)=NCc2cccc(-c3noc(C(F)(F)F)n3)c2)cc1 (stereo not drawn) [Compound 139, (4-methoxyphenyl)(methyl)((3-(5-(trifluoromethyl)-1,2,4-oxadiazol-3-yl)benzyl)imino)-λ^6-sulfanone] | > 70 | > 70 |  | 
13 | COc1ccc(S(C)(=O)=NC(=O)c2cccc(-c3noc(C(F)(F)F)n3)c2)cc1 (stereo not drawn) [Compound 71, N-((4-methoxyphenyl)(methyl)(oxo)-λ^6-sulfaneylidene)-3-(5-(trifluoromethyl)-1,2,4-oxadiazol-3-yl)benzamide] |  |  | > 70 | > 90
14 | CS(=O)(=Nc1ccc(-c2noc(C(F)(F)F)n2)cc1)c1ccc(C(F)(F)F)cc1 (stereo not drawn) [Compound 19, methyl((4-(5-(trifluoromethyl)-1,2,4-oxadiazol-3-yl)phenyl)imino)(4-(trifluoromethyl)phenyl)-λ^6-sulfanone] | > 70 |  |  | > 90
15 | Cc1ccc(S(C)(=O)=NCc2ccc(-c3noc(C(F)(F)F)n3)cc2)cc1 (stereo not drawn) [Compound 137, methyl(p-tolyl)((4-(5-(trifluoromethyl)-1,2,4-oxadiazol-3-yl)benzyl)imino)-λ^6-sulfanone] | > 70 |  | > 70 | 
16 | COc1ccc(S(C)(=O)=Nc2ccc(-c3noc(C(F)(F)F)n3)cc2)c(OC)c1 (stereo not drawn) [Compound 96, (2,4-dimethoxyphenyl)(methyl)((4-(5-(trifluoromethyl)-1,2,4-oxadiazol-3-yl)phenyl)imino)-λ^6-sulfanone] | > 70 |  | > 70 | > 90
17 | CS(=O)(Cc1ccc(Cl)c(F)c1)=Nc1ccc(-c2noc(C(F)(F)F)n2)cc1 (stereo not drawn) [Compound 99, (4-chloro-3-florobenzyl)(methyl)((4-(5-(trifluoromethyl)-1,2,4-oxadiazol-3-yl)phenyl)imino)-λ^6-sulfanone] |  |  | > 70 | > 90
18 | CS(=O)(Cc1ccncc1)=NC(=O)c1ccc(-c2noc(C(F)(F)F)n2)cc1 (stereo not drawn) [Compound 59, N-(mehtyl(oxo)(pyridin-4-ylmethyl)-λ^6-sulfaneylidene)-4-(5-(trifluoromethyl)-1,2,4-oxadiazol-3-yl)benzamide] |  |  | > 70 | > 90
19 | CS(=O)(Cc1cc(F)ccc1F)=NC(=O)c1ccc(-c2noc(C(F)(F)F)n2)cc1 (stereo not drawn) [Compound 62, N-((2,5-difluorobenzyl)(methyl)(oxo)-λ^6-sulfaneylidene)-4-(5-(trifluoromethyl)-1,2,4-oxadiazol-3-yl)benzamide] |  |  | > 70 | > 90
20 | CS(=O)(Cc1cccc(F)c1F)=NC(=O)c1ccc(-c2noc(C(F)(F)F)n2)cc1 (stereo not drawn) [Compound 33, N-((2,3-difluorobenzyl)(methyl)(oxo)-λ^6-sulfaneylidene)-4-(5-(trifluoromethyl)-1,2,4-oxadiazol-3-yl)benzamide] |  |  | > 70 | 
21 | CS(=O)(=NCc1cccc(-c2noc(C(F)(F)F)n2)c1)c1ccccc1F (stereo not drawn) [Compound 148, (2-fluorophenyl)(methyl)((3-(5-(trifluoromethyl)-1,2,4-oxadiazol-3-yl)benzyl)imino)-λ^6-sulfanone] | > 70 |  | > 70 | 
22 | CS(=O)(Cc1ccc(C(F)(F)F)cc1)=Nc1ccc(-c2noc(C(F)(F)F)n2)cc1 (stereo not drawn) [Compound 90, methyl((4-(5-(trifluoromethyl)-1,2,4-oxadiazol-3-yl)phenyl)imino)(4-(trifluoromethyl)benzyl)-λ^6-sulfanone] |  | > 70 |  | 
23 | COc1cccc(S(=O)(=O)NC(=O)c2ccc(-c3noc(C(F)(F)F)n3)cc2)c1 [Compound 158, N-((3-methoxyphenyl)sulfonyl)-4-(5-(trifluoromethyl)-1,2,4-oxadiazol-3-yl)benzamide] |  |  | > 70 | 
24 | CS(=O)(Cc1ccccn1)=NC(=O)c1ccc(-c2noc(C(F)(F)F)n2)cc1 (stereo not drawn) [Compound 52, N-(methyl(oxo)(pyridin-2-ylmethyl)-λ^6-sulfaneylidene)-4-(5-(trifluoromethyl)-1,2,4-oxadiazol-3-yl)benzamide] |  |  | > 70 | > 90
25 | COc1ccc(S(C)(=O)=NC(=O)c2ccc(-c3noc(C(F)(F)F)n3)cc2)c(OC)c1 (stereo not drawn) [Compound 56, N-((2,4-dimethoxyphenyl)(methyl)(oxo)-λ^6-sulfaneylidene)-4-(5-(trifluoromethyl)-1,2,4-oxadiazol-3-yl)benzamide] |  |  | > 70 | > 90
26 | COc1ccc(S(C)(=O)=NCc2cccc(-c3noc(C(F)(F)F)n3)c2)c(OC)c1 (stereo not drawn) [Compound 140, (2,4-dimethoxyphenyl)(methyl)((3-(5-(trifluoromethyl)-1,2,4-oxadiazol-3-yl)benzyl)imino)-sulfanone] |  | > 70 |  | 
27 | COc1ccc(S(C)(=O)=Nc2ccc(-c3noc(C(F)(F)F)n3)cc2)cc1 (stereo not drawn) [Compound 20, (4-methoxyphenyl)(methyl)((4-(5-(trifluoromethyl)-1,2,4-oxadiazol-3-yl)phenyl)imino)-λ^6-sulfanone] | > 70 |  | > 70 | > 90
